One data set has as its system CHO-K1 OATP1C1 cells. Conditions: for Cytotoxicity IC10: concentration that inhibits cell viability by 10%, CHO-K1 OATP1C1 cells, 30 min exposure. As for the experimental part:
Cell viability was assessed through the quantitation of ATP present in cells using the commercially available CellTiter-Glo® luminescent cell viability assay and performed according to the manufacturer’s instruction (Promega, Leiden, the Netherlands). Briefly, cells were seeded as described earlier in opaque-walled clear-bottom 96 well plates. On the day of the experiment, each well was washed with 200 µL phosphate buffered saline (PBS) and exposed to 80 µL of uptake buffer, 10 µL of a tenfold stock of test compound solved in uptake buffer or control and 10 µL of T4 (final concentration 10 nM). 0.1% DMSO was used as a solvent control, while 10% DMSO was used as a positive control. After exposure for the indicated times similar to THTMT TH uptake assay, cells were immediately washed with ice-cold PBS + 0.1%BSA and exposed to 100 µL of the CellTiter-Glo® Reagent. Plates were then shaken on an orbital shaker for 2 min and left to incubate at room temperature for 10 min. Luminescence was measured on a BioTek Cytation 5 microplate reader. […] Each individual experiment was repeated at least twice and contained three technical replicates of each control and concentration tested.
Figure S1. […] Blue dots indicate the plate medians from three or four independent experiments, all control and chemical concentrations were tested in triplicates per plate.

Another data set concerns the target T1, OATP1C1 (Homo sapiens, UniProt Q9NYB5).
T1 construct: host or cells: CHO-K1
T1 sequence (Q9NYB5 1-712): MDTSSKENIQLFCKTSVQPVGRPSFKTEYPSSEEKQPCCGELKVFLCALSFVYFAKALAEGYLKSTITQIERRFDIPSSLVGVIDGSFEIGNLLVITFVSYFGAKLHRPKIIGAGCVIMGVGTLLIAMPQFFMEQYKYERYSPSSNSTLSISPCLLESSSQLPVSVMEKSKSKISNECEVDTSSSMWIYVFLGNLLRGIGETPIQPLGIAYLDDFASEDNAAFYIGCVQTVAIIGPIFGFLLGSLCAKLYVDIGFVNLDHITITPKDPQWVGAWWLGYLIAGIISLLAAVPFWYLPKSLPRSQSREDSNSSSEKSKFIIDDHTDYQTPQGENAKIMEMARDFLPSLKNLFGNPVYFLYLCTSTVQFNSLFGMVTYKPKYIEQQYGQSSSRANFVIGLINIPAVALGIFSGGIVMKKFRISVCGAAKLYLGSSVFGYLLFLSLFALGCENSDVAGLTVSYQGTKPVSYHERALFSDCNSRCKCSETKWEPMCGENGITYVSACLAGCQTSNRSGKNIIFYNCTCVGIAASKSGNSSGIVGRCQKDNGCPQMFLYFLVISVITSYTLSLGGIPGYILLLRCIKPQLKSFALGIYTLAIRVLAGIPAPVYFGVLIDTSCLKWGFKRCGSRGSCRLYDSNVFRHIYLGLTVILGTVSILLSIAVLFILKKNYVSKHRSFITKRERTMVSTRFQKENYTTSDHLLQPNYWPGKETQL
Kind of data set: CHO-K1 OATP1C1 TH uptake assay with 125I-T4 tracer. Conditions: for 125I-T4 uptake compared to the vehicle control (range finding): single concentration 10 or 100 µM, below 80% = positive hit. It is filed as cell-based. Here is the method: MDCK-OAT4 and MDCK-DEST cells were cultured in DMEM:F12 (L-glutamine, 15 mM HEPES) (Gibco) supplemented with (100 µg/mL penicillin + 100 µg/mL streptomycin), 10% fetal calf serum (Gibco) and 2 µg/mL blasticidin (Sigma). CHO-K1 OATP1C1 or WT cells were cultured in F12 nutrient mix (Gibco) supplemented with (100 µg/mL penicillin + 100 µg/mL streptomycin), 10% fetal calf serum (Gibco) and […] G418 (Sigma). All cell cultures were incubated at 37 °C with 5% CO2 saturation until 80% confluency. MDCK-OAT4 and MDCK-DEST cells were seeded in 96 wells plate at a density of 4 × 10^5 cells in 100 µL medium per well and incubated for 24 h before the start of the MDCK-OAT4 TH uptake assay. CHO-K1 OATP1C1 and WT cells were seeded in 96 wells plate at a density of 3 × 10^5 cells in 100 µL medium per well 72 h before the CHO-K1 OATP1C1 TH uptake assay. Medium from CHO-K1 OATP1C1 or WT assay plates was changed to serum-free F12 medium containing 5 mM sodium-butyrate 24 h before start of the CHO-K1 OATP1C1 TH uptake assay to increase transfected expression of SV-40 promotor plasmids.
Subsequently 10 µL of a tenfold stock of test compound in uptake buffer (solvent concentration 1% v/v) was added to each well. […] Cells were exposed at 37 °C for 20 min (MDCK-OAT4) or 30 min (CHO-K1 OATP1C1), unless stated differently. After exposure, cells were immediately washed with ice-cold PBS supplemented with 0.1% bovine serum albumin (BSA). Subsequently, cells were lysed in 50 µL of 0.1 M NaOH under continuous shaking at room temperature. After 20 min, cell lysates were manually transferred into separate 5 mL polypropylene tubes. One tube was also prepared with 10 µL of the T4 tracer solution. Radioactivity was measured in a Wizard^2 gamma counter (Perkin Elmer).
For the CHO-K1 OATP1C1 TH uptake assay total of 29 chemicals (Table 1) were selected for the EDC screening based on available literature data. […] The same chemicals were selected for the MDCK-OAT4 TH uptake assay, with the exception of BPF, VRP and TCS. […] The THTMT TH uptake assay was then performed as described earlier. […] A concentration of 100 µM ICG was used as a reference chemical for OATP1C1 and 100 µM LESI for OAT4. At least three independent experiments were performed for each chemical.
Raw values were normalized to the total amount of radioactivity in the T4 tracer solution. These values were expressed as a percentage of total radioactivity added (or uptake percentage) and used for all further data analysis. Statistically significant differences between the T4 uptake of transfected and wild type cells, in the presence or absence of inhibitor, were determined by two-way ANOVA (α = 5%, two-sided). […] In brief, uptake values were normalized to the median response of the vehicle and positive controls for each plate. […] Statistical analysis were performed using GraphPad Prism version 8 for Windows (GraphPad Software, San Diego, California USA) and SAS 9.3 (SAS Institute, Cary NC).

The mark [1] stands for this setting: concentration that inhibits 125I-T4 uptake by 20%, 10 nM T4, 30 min, brackets = 95% CI.

Read-outs that look alike come from different tables or passages of the source. A value given as a limit tells only on which side of the number the result lay.

Consider `Oc1c(Cl)c(Cl)c(Cl)c(Cl)c1Cl` [Pentachlorophenol], for which, in the data set on CHO-K1 OATP1C1 cells, the “Cytotoxicity IC10” value was over 18.5 µM. In addition, on OATP1C1, the “T4 uptake inhibition BMC20 (M), [CI]” value is 8.81E−08 [5.80E−08; 1.34E−07] M.
`CCCN(CCC)S(=O)(=O)c1ccc(C(=O)O)cc1` [Probenecid, reference compound]: in the data set with CHO-K1 OATP1C1 cells, the “Cytotoxicity IC10” value was over 100 µM. Moreover, the “T4 uptake inhibition BMC20 (M), [CI]” value on OATP1C1 (setting [1]) was 6.66E−07 [1.24E−07; 3.57E−06] M.
In the same order, the values of `O=C(O)C(F)(F)C(F)(F)C(F)(F)C(F)(F)C(F)(F)C(F)(F)C(F)(F)F` [Perfluorooctanoic acid] are over 100 µM and 2.94E−06 [1.04E−06; 8.36E−06] M.
As to `O=S(=O)([O-])c1cc(S(=O)(=O)O)ccc1C1=c2cc3c4c(c2Oc2c1cc1c5c2CCCN5CCC1)CCC[N+]=4CCC3` [Sulforhodamine 101, reference compound], the “Cytotoxicity IC10” value in the data set with CHO-K1 OATP1C1 cells was over 10 µM. Further, the “T4 uptake inhibition BMC20 (M), [CI]” value at OATP1C1 (setting [1]) was 2.86E−06 [1.29E−06; 6.34E−06] M. Further, at OATP1C1 (10 nM T4, 30 min), the “125I-T4 uptake compared to the vehicle control (range finding)” value is given as “below 80%”.
`O=c1c(O)c(-c2ccc(O)c(O)c2)oc2cc(O)cc(O)c12` [Quercetin]: the “Cytotoxicity IC10” value with CHO-K1 OATP1C1 cells was over 100 µM. Moreover, the “T4 uptake inhibition BMC20 (M), [CI]” value at OATP1C1 (setting [1]) was 3.94E−08 [4.41E−09; 3.51E−07] M.
In the same order, the values of `CO[C@H]1/C=C/O[C@@]2(C)Oc3c(C)c(O)c4c(O)c(c(/C=N/N5CCN(C)CC5)c(O)c4c3C2=O)NC(=O)/C(C)=C\C=C\[C@H](C)[C@H](O)[C@@H](C)[C@@H](O)[C@@H](C)[C@H](OC(C)=O)[C@@H]1C` [Rifampicin, reference compound] are over 100 µM and 4.06E−05 [2.58E−05; 6.38E−05] M.
`Oc1ccc(C(c2ccc(O)cc2)(C(F)(F)F)C(F)(F)F)cc1` [Bisphenol AF, Bisphenol-AF]: in the data set with CHO-K1 OATP1C1 cells (at concentrations of the uptake assay, Figure S1), the cytotoxic effects result was “confounded by cytotoxic effects”. Further, the “Cytotoxicity IC10” value with CHO-K1 OATP1C1 cells was 0.909 µM. The “T4 uptake inhibition BMC20 (M), [CI]” value on OATP1C1 (setting [1]) was 3.52E−06 [2.03E−06; 6.11E−06] M.
As to `Oc1ccc(Cc2ccc(O)cc2)cc1` [Bisphenol F, Bisphenol-F], the “Cytotoxicity IC10” value in the data set on CHO-K1 OATP1C1 cells is over 100 µM. Further, at OATP1C1 (setting [1]), the “T4 uptake inhibition BMC20 (M), [CI]” value is 4.49E−05 [2.80E−05; 7.20E−05] M. Moreover, the “125I-T4 uptake compared to the vehicle control (range finding)” value on OATP1C1 (10 nM T4, 30 min) is given as “below 80%”.
As to `CC(C)(c1cc(Br)c(O)c(Br)c1)c1cc(Br)c(O)c(Br)c1` [Tetrabromobisphenol A, Tetrabromobisphenol-A], the “Cytotoxicity IC10” value with CHO-K1 OATP1C1 cells is over 0.3 µM. Moreover, the “BMC20 (20% reduction in T4 uptake)” value at OATP1C1 amounted to 0.0020 µM. Besides, on OATP1C1 (setting [1]), the “T4 uptake inhibition BMC20 (M), [CI]” value is 2.03E−09 [1.28E−09; 3.22E−09] M. Moreover, the “125I-T4 uptake compared to the vehicle control (range finding)” value on OATP1C1 (10 nM T4, 30 min) is on record as “below 80%”.
As to `COc1cc([C@@H]2Oc3c(O)cc([C@H]4Oc5cc(O)cc(O)c5C(=O)[C@@H]4O)cc3[C@H]2CO)ccc1O` [Silychristin, reference compound], the “Cytotoxicity IC10” value in the data set on CHO-K1 OATP1C1 cells was over 10 µM. On OATP1C1 (setting [1]), the “T4 uptake inhibition BMC20 (M), [CI]” value was 3.78E−06 [1.54E−06; 9.27E−06] M. Besides, the “125I-T4 uptake compared to the vehicle control (range finding)” value at OATP1C1 (10 nM T4, 30 min) was “below 80%”.
In the same order, the values of `O=S(=O)(O)C(F)(F)C(F)(F)C(F)(F)C(F)(F)C(F)(F)C(F)(F)C(F)(F)C(F)(F)F` [Perfluorooctanesulfonic acid] are over 100 µM, 4.03E−07 [2.32E−07; 7.00E−07] M and “below 80%”.
Turning to `CC1(C)C(/C=C/C=C/C=C/C=C2\N(CCCCS(=O)(=O)O)c3ccc4ccccc4c3C2(C)C)=[N+](CCCCS(=O)(=O)[O-])c2ccc3ccccc3c21` [Indocyanine green, reference compound], the “Cytotoxicity IC10” value with CHO-K1 OATP1C1 cells is over 100 µM. Also, at OATP1C1 (100 µM, t = 40 min, versus CHO-K1 wildtype cells), the “T4 uptake on co-exposure to known inhibitor” value is “decreased back to control”. Moreover, the “T4 uptake inhibition BMC20 (M), [CI]” value at OATP1C1 (setting [1]) is 3.60E−07 [2.17E−07; 5.97E−07] M.
On to `O=C1OC(c2ccc(O)c(S(=O)(=O)O)c2)(c2ccc(O)c(S(=O)(=O)O)c2)c2c(Br)c(Br)c(Br)c(Br)c21` [Bromosulfophthalein, reference compound], for which the “Cytotoxicity IC10” value in the data set with CHO-K1 OATP1C1 cells is over 100 µM. On OATP1C1 (setting [1]), the “T4 uptake inhibition BMC20 (M), [CI]” value was 8.72E−07 [5.70E−07; 1.33E−06] M. The “125I-T4 uptake compared to the vehicle control (range finding)” value at OATP1C1 (10 nM T4, 30 min) was “below 80%”.

The values above are taken from publication PMC11324666, “Two novel in vitro assays to screen chemicals for their capacity to inhibit thyroid hormone transmembrane transporter proteins OATP1C1 and OAT4” (Archives of Toxicology, 2024).
